# Measured values taken from the supplement of paper PMC10307832.
# Legend:
# Experiment in all cases: relative viability (nuclei count vs DMSO), 5 days (fraction); higher = more cells survive
# [1] = compound: CCOc1cc2ncc(C#N)c(Nc3ccc(OCc4ccccn4)c(Cl)c3)c2cc1NC(=O)/C=C/CN(C)C [Neratinib]
# How it was run: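 A plate was accepted only when its control CV was below 25% and the cells had doubled at least once. Viability is defined from nuclear counts as treated wells divided by vehicle wells, with the median taken across plates. That median covers lung cancer cell lines grown in 1536-well plates, dosed by pinning at five √10-spaced library-drug concentrations, and counted in MetaXpress from 4× Hoechst images after 5 days.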
# [2] = compound: CCOc1cc2ncc(C#N)c(Nc3ccc(OCc4ccccn4)c(Cl)c3)c2cc1NC(=O)/C=C/CN(C)C [Neratinib] + CC(=O)Nc1cccc(-n2c(=O)n(C3CC3)c(=O)c3c(Nc4ccc(I)cc4F)n(C)c(=O)c(C)c32)c1 [Trametinib] (partner 0.02 µM)
# How it was run: (§1)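 Lung cancer cell lines in 1536-well plates were dosed by pin tool the day after seeding, either with one drug alone or with a fixed anchor-drug dose plus five library-drug doses (not always all listed) in √10 steps. After 5 days, cells were fixed and their nuclei stained in one step (final 0.05% Triton X-100, 1% formaldehyde, 1 ug/ml Hoechst), then counted on 4× images. Relative viability is the nuclei count in treated wells divided by that in vehicle wells. Values are medians of duplicate plates.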
# [3] = compound: CCOc1cc2ncc(C#N)c(Nc3ccc(OCc4ccccn4)c(Cl)c3)c2cc1NC(=O)/C=C/CN(C)C [Neratinib] + Cc1cc(Nc2cc(N3CCN(C)CC3)nc(Sc3ccc(NC(=O)C4CC4)cc3)n2)n[nH]1 [Tozasertib] (partner 0.1 µM)
# How it was run: as §1
# [4] = compound: CCOc1cc2ncc(C#N)c(Nc3ccc(OCc4ccccn4)c(Cl)c3)c2cc1NC(=O)/C=C/CN(C)C [Neratinib] + NC(=O)Nc1cc(-c2cccc(F)c2)sc1C(=O)N[C@H]1CCCNC1 [AZD7762] (partner 0.2 µM)
# How it was run: as §1
Cell Line,relative viability ([1]; 0.01 µM),relative viability ([1]; 0.03162 µM),relative viability ([1]; 0.1 µM),relative viability ([1]; 0.3162 µM),relative viability ([1]; 1 µM),relative viability ([2]; first compound 0.01 µM),relative viability ([2]; first compound 0.03162 µM),relative viability ([2]; first compound 0.1 µM),relative viability ([2]; first compound 0.3162 µM),relative viability ([2]; first compound 1 µM),relative viability ([3]; first compound 0.01 µM),relative viability ([3]; first compound 0.03162 µM),relative viability ([3]; first compound 0.1 µM),relative viability ([3]; first compound 0.3162 µM),relative viability ([3]; first compound 1 µM),relative viability ([4]; first compound 0.01 µM),relative viability ([4]; first compound 0.03162 µM),relative viability ([4]; first compound 0.1 µM),relative viability ([4]; first compound 0.3162 µM),relative viability ([4]; first compound 1 µM)
LK-2,1.12,1.05,0.988,0.718,0.499,0.948,0.714,0.851,0.501,0.34,0.159,0.179,0.205,0.189,0.172,0.358,0.309,0.368,0.145,0.175
RERF-LC-KJ,1,0.998,0.86,0.806,0.556,0.844,0.889,0.785,0.694,0.504,0.553,0.593,0.586,0.5,0.293,1.06,1.1,0.741,0.734,0.679
NCI-H1437,1.05,1.03,0.95,0.94,0.95,0.488,0.579,0.485,0.424,0.328,0.43,0.439,0.296,0.38,0.328,1.18,1.12,1.05,1.08,0.896
NCI-H2170,0.995,0.994,0.62,0.26,0.24,0.873,0.862,0.631,0.178,0.171,0.842,0.684,0.565,0.266,0.183,0.816,0.549,0.515,0.177,0.159
SW 900,,1.05,0.772,0.94,0.94,0.866,0.906,0.527,0.729,0.467,0.561,0.444,0.673,0.517,0.387,0.696,0.753,0.526,0.54,0.409
LCLC-103H,0.996,0.997,0.897,1.07,0.989,0.739,0.733,0.618,0.681,0.639,0.44,0.503,0.502,0.511,0.365,0.818,0.812,0.655,0.857,0.68
NCI-H460,,1.11,0.865,0.978,0.981,0.233,0.116,0.083,0.154,0.0847,0.587,0.546,0.378,0.268,0.0381,0.654,0.718,0.639,0.54,0.265
NCI-H1993,1.03,0.837,0.719,0.685,0.731,0.445,0.505,0.512,0.419,0.54,0.528,0.594,0.597,0.536,0.593,0.762,0.745,0.624,0.465,0.581
BEN,,1.18,1.03,0.849,0.753,1.02,1.2,1,0.883,0.792,0.559,0.576,0.416,0.517,0.447,0.745,0.804,0.628,0.571,0.596
LC-2-ad,1.01,1.03,0.915,0.738,0.797,0.98,0.933,0.805,0.845,0.85,0.448,0.424,0.455,0.388,0.277,0.832,0.894,,0.551,0.327
NCI-H1915,1.07,1.03,0.972,0.916,1.05,0.32,0.314,0.294,0.299,0.23,0.42,0.475,0.402,0.39,0.346,0.791,0.716,0.638,0.685,0.653
LXF-289,1.03,1.07,0.948,1.05,1.01,0.739,0.733,0.674,0.685,0.536,0.22,0.233,0.183,0.174,0.186,1.09,1.12,1.04,1.21,
HCC-44,1.06,1.01,1.01,0.943,1.06,1.14,1.08,1.11,1.08,1.09,1.31,1.15,,0.778,0.458,0.961,0.995,0.947,1.05,1.12
NCI-H2342,0.949,1.01,0.765,0.582,0.66,0.772,0.772,0.71,0.667,0.543,0.414,0.52,0.441,0.455,0.358,0.519,0.499,0.408,0.267,0.379
HOP-62,1.02,1.15,0.934,0.914,1.09,0.408,0.4,0.337,,0.405,0.444,0.354,0.33,0.369,0.32,0.672,0.525,0.559,,0.443
NCI-H358,0.949,0.792,0.556,0.275,0.242,0.119,0.118,0.0959,0.121,0.125,0.0993,0.0867,0.0981,0.0713,0.0842,0.533,0.508,0.358,0.257,0.223
